Laboratory results as given in ChEMBL document CHEMBL1201862, “PubChem BioAssay data set” (2004).
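Compound exposure: 48 hours, 5 concentrations, 96-well plates. GI50 = concentration required for 50% inhibition of growth.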 Calls of active or inactive are those of the source. No stated cut-off is given here; in the data, active = GI50 up to about 1.1 µM and inactive = higher.

Experiments:
Experiment in all cases: NCI tumour cell line growth inhibition, 48 h
ACHN = system: ACHN
SK-OV-3 = system: SK-OV-3
CAKI-1 = system: CAKI-1
KM12 = system: KM12
NCI-H522 = system: NCI-H522
K562 = system: K562
DU-145 = system: DU-145
HOP-62 = system: HOP-62
MOLT-4 = system: MOLT-4
BT-549 = system: BT-549
UACC-62 = system: UACC-62
Malme-3M = system: Malme-3M
MDA-MB-435 = system: MDA-MB-435
CCRF-CEM = system: CCRF-CEM
SW-620 = system: SW-620
LOX IMVI = system: LOX IMVI
SF-268 = system: SF-268
HOP-92 = system: HOP-92
HL-60 = system: HL-60
OVCAR-4 = system: OVCAR-4

| Compound | GI50 (ACHN) | GI50 (SK-OV-3) | GI50 (CAKI-1) | GI50 (KM12) | GI50 (NCI-H522) | GI50 (K562) | GI50 (DU-145) | GI50 (HOP-62) | GI50 (MOLT-4) | GI50 (BT-549) | GI50 (UACC-62) | GI50 (Malme-3M) | GI50 (MDA-MB-435) | GI50 (CCRF-CEM) | GI50 (SW-620) | GI50 (LOX IMVI) | GI50 (SF-268) | GI50 (HOP-92) | GI50 (HL-60) | GI50 (OVCAR-4) |
| --- | --- | --- | --- | --- | --- | --- | --- | --- | --- | --- | --- | --- | --- | --- | --- | --- | --- | --- | --- | --- |
| Cc1ccc2c(O)cc(-c3csc4ccccc34)nc2n1 | < 0.01 µM (active) | < 0.01 µM (active) | < 0.01 µM (active) | < 0.01 µM (active) | < 0.01 µM (active) | < 0.01 µM (active) | 0.0163 µM (active) | < 0.0138 µM (active) | < 0.01 µM (active) | 0.0183 µM (active) | < 0.0122 µM (active) | < 0.01 µM (active) | < 0.01 µM (active) | < 0.01 µM (active) | < 0.01 µM (active) | < 0.0115 µM (active) | 0.018 µM (active) | 0.321 µM (active) | < 0.01 µM (active) |  |
| CC(C)CN(CC#N)CC(C)C | > 100 µM (inactive) | > 100 µM (inactive) | > 100 µM (inactive) | > 100 µM (inactive) | > 100 µM (inactive) | > 100 µM (inactive) | > 100 µM (inactive) | > 100 µM (inactive) | > 100 µM (inactive) | > 100 µM (inactive) | > 100 µM (inactive) | > 100 µM (inactive) | > 100 µM (inactive) |  | > 100 µM (inactive) | > 100 µM (inactive) | > 100 µM (inactive) | > 100 µM (inactive) | > 100 µM (inactive) | > 100 µM (inactive) |
| CCOC(=O)Nc1sc2c(c1C#N)CCCC2 | > 100 µM (inactive) | > 100 µM (inactive) | > 100 µM (inactive) | 25.9 µM (inactive) | 64 µM (inactive) | 33.1 µM (inactive) | > 100 µM (inactive) | > 100 µM (inactive) | 62.5 µM (inactive) | 49 µM (inactive) | 67.1 µM (inactive) | > 100 µM (inactive) | 48.2 µM (inactive) | 64.9 µM (inactive) | > 100 µM (inactive) | 63.8 µM (inactive) | > 100 µM (inactive) | 47.3 µM (inactive) | 45.3 µM (inactive) | > 100 µM (inactive) |
| CSc1nc(SC)c2c(CN=[N+]=[N-])c(Br)n(Cc3ccccc3)c2n1 | > 100 µM (inactive) | 24.1 µM (inactive) | > 100 µM (inactive) | > 100 µM (inactive) | > 100 µM (inactive) |  | > 100 µM (inactive) | 92.3 µM (inactive) | > 100 µM (inactive) | > 100 µM (inactive) | 47.3 µM (inactive) | > 100 µM (inactive) | 55.7 µM (inactive) | 72.6 µM (inactive) | > 100 µM (inactive) | 66.1 µM (inactive) | > 100 µM (inactive) | 15 µM (inactive) | 62.1 µM (inactive) | 76.7 µM (inactive) |
| O=C1C=C/C(=N/c2ccccc2)c2ccccc21 | 14.4 µM (inactive) | 20.4 µM (inactive) | 14.8 µM (inactive) | 11.4 µM (inactive) | 10.2 µM (inactive) | 12.5 µM (inactive) | 1.68 µM (inactive) | 11.2 µM (inactive) | 5.41 µM (inactive) | 14.7 µM (inactive) | 3.52 µM (inactive) |  | 1.84 µM (inactive) | 4.29 µM (inactive) | 7.03 µM (inactive) | 4.18 µM (inactive) | 11.3 µM (inactive) | 14.9 µM (inactive) | 4.89 µM (inactive) | 11.9 µM (inactive) |
| C/C(=N\NC(=S)N1CCC1)c1ccccn1 | 0.01 µM (active) | < 0.0131 µM (active) | 0.0398 µM (active) | 0.0287 µM (active) | < 0.0497 µM (active) | 0.01 µM (active) | 0.891 µM (active) | 0.0181 µM (active) | 0.01 µM (active) | 11.5 µM (inactive) | < 0.016 µM (active) | 0.175 µM (active) | 0.0264 µM (active) | 0.01 µM (active) | < 0.0103 µM (active) | < 0.0119 µM (active) | 0.824 µM (active) | 0.0443 µM (active) | 0.01 µM (active) |  |
| CCCC(=O)OC1C(CO)OC(n2cc(F)c(=O)[nH]c2=O)C1F (configuration not stated) | 44.1 µM (inactive) | > 100 µM (inactive) | 50.2 µM (inactive) | > 100 µM (inactive) | > 100 µM (inactive) |  | 17.3 µM (inactive) | 4.5 µM (inactive) | > 100 µM (inactive) | 11.5 µM (inactive) | 24.1 µM (inactive) | 42.6 µM (inactive) | 59.4 µM (inactive) | 3.91 µM (inactive) | > 100 µM (inactive) | > 100 µM (inactive) |  | > 100 µM (inactive) | 80.5 µM (inactive) | 60.5 µM (inactive) |
| O=C(CC(=O)N(C(=O)c1ccccc1)c1ccc(Cl)cc1)N/N=C\c1ccccc1O | 77.3 µM (inactive) | 17.2 µM (inactive) | > 100 µM (inactive) | 33.5 µM (inactive) | > 100 µM (inactive) | > 100 µM (inactive) | > 100 µM (inactive) | 31.8 µM (inactive) | 2.61 µM (inactive) | 21.1 µM (inactive) |  | > 100 µM (inactive) | > 100 µM (inactive) | 2.86 µM (inactive) | > 100 µM (inactive) | 58.1 µM (inactive) | 24.8 µM (inactive) | 24.6 µM (inactive) | > 100 µM (inactive) | > 100 µM (inactive) |
| CCOC(=O)c1cn2c(ccc3sc4ccccc4c(=O)c32)n1 | > 100 µM (inactive) |  | > 100 µM (inactive) | > 100 µM (inactive) | > 100 µM (inactive) | > 100 µM (inactive) | > 100 µM (inactive) | > 100 µM (inactive) | > 100 µM (inactive) | > 100 µM (inactive) |  | > 100 µM (inactive) | > 100 µM (inactive) | > 100 µM (inactive) | > 100 µM (inactive) | > 100 µM (inactive) | > 100 µM (inactive) | 87.5 µM (inactive) | > 100 µM (inactive) |  |
| O=c1c(C(c2ccc(-c3ccccc3)cc2)c2c(O)oc3ccccc3c2=O)c(O)oc2ccccc12 | 26.7 µM (inactive) |  | 19.9 µM (inactive) | 19.6 µM (inactive) | 24 µM (inactive) | 45.5 µM (inactive) | 59.8 µM (inactive) | 24.1 µM (inactive) | 33.5 µM (inactive) | 19.2 µM (inactive) | 19.3 µM (inactive) | 24.7 µM (inactive) | 22.8 µM (inactive) | 31.3 µM (inactive) | 16.4 µM (inactive) | 19.1 µM (inactive) | 21.8 µM (inactive) | 19.1 µM (inactive) | 23.2 µM (inactive) | 35.1 µM (inactive) |
| O=c1c(C(c2cc(OCc3ccccc3)cc(OCc3ccccc3)c2)c2c(O)oc3ccccc3c2=O)c(O)oc2ccccc12 | 2.92 µM (inactive) | 6.58 µM (inactive) | 7.26 µM (inactive) | 4.19 µM (inactive) | 8.61 µM (inactive) | 3.35 µM (inactive) | 6.35 µM (inactive) | 10.3 µM (inactive) | 3.91 µM (inactive) | 5.01 µM (inactive) | 4.02 µM (inactive) |  | 4.83 µM (inactive) | 2.42 µM (inactive) | 4.58 µM (inactive) | 15.3 µM (inactive) | 5.07 µM (inactive) | 2.69 µM (inactive) | 2.51 µM (inactive) | 4.97 µM (inactive) |
